According to the supplement of paper PMC12463676, “Small-molecule dissolution of stress granules by redox modulation benefits ALS models” (Nature Chemical Biology, 2025):

Assays:
potassium arsenate = compound: O=[As]([O-])(O)O.[K+] [potassium arsenate]; assay: thermal stability z-score vs DMSO; higher = more thermally stabilized by treatment; settings: HeLa; arsenate concentration 1 mM
Protocol: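 Cellular thermal proteome profiling in HeLa cells treated with 1 mM arsenate for 1 h (DMSO pretreatment), heated to ten temperatures (37-66.3 °C). Soluble protein was quantified by TMT mass spectrometry relative to DMSO controls; the thermal stability score was transformed to a z-score; mean of n = 3 experiments.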

lipoamide = compound: NC(=O)CCCCC1CCSS1 [lipoamide]; assay: as above; settings: HeLa, lipoamide concentration 100 µM
Protocol: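 Cellular thermal proteome profiling in HeLa cells. Cells were treated with 100 µM lipoamide for 1 h, with or without 1 mM arsenate for a further 1 h, then heated to ten temperatures (37-66.3 °C), and soluble protein was quantified by TMT mass spectrometry relative to 0.1% DMSO controls. The thermal stability score (sum of log2 fold changes minus the abundance score) was transformed to a z-score; mean of n = 3 experiments.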

[1] = arsenate co-treatment: 1 mM arsenate 1 h
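Note: each temperature applied for 3 min, abundance score taken as mean log2 fold change at the two lowest temperatures, z-score obtained by mean subtraction and division by SD.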

Chain of UniProt Q5VTL8 (Q5VTL8 whole entry): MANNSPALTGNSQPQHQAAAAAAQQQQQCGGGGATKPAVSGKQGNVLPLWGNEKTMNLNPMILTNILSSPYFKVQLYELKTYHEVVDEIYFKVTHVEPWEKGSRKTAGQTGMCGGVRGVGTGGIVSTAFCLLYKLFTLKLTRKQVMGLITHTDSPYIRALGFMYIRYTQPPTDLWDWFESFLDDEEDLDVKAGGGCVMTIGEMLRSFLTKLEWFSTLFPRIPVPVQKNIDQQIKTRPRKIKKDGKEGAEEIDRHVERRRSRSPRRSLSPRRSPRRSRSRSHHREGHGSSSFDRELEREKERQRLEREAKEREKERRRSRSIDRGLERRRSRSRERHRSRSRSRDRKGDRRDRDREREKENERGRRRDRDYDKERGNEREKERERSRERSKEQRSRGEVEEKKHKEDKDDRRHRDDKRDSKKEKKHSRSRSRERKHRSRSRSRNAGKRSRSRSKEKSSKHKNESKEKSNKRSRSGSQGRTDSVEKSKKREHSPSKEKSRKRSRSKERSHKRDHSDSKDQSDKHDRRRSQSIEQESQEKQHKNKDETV
Chain of UniProt Q3KRA9 (Q3KRA9 whole entry): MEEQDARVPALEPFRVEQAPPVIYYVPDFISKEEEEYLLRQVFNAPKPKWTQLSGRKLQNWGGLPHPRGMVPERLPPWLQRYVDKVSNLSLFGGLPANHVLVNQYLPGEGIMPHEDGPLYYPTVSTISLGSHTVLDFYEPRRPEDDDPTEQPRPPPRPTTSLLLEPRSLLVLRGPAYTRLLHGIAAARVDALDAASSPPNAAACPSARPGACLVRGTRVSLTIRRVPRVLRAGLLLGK
Chain of UniProt P56524 (P56524 whole entry): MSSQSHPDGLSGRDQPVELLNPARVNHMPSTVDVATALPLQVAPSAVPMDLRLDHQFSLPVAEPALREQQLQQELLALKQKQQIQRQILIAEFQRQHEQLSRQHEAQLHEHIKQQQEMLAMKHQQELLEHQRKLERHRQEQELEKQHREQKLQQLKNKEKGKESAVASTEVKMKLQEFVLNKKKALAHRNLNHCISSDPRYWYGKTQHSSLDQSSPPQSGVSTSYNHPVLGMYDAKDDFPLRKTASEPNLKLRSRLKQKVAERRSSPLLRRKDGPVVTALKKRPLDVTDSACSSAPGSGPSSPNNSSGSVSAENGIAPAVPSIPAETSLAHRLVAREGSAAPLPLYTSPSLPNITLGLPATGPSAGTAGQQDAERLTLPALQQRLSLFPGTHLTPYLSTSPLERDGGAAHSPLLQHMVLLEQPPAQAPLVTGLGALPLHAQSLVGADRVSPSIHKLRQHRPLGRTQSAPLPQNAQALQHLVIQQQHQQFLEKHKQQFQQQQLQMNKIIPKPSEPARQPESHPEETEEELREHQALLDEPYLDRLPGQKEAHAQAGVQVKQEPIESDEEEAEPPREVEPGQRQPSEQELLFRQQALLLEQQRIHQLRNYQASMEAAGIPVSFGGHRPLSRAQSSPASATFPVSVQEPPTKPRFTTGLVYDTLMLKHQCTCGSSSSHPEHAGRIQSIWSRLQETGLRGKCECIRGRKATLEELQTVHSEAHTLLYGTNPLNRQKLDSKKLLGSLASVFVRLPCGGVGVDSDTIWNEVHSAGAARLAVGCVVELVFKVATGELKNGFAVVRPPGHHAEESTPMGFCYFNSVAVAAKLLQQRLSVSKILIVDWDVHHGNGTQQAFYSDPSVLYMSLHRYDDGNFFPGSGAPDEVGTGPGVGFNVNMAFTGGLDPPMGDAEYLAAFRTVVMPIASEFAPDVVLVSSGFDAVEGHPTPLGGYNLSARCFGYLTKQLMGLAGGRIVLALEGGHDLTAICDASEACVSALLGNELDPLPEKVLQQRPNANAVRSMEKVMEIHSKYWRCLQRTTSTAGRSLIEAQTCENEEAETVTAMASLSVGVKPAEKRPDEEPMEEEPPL
Chain of UniProt O95816 (O95816 whole entry): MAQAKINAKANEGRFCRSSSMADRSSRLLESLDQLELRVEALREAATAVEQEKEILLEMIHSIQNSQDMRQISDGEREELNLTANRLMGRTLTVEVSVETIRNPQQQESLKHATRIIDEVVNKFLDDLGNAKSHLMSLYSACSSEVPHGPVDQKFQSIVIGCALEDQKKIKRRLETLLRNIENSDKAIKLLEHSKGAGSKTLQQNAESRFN
Chain of UniProt O75191 (O75191 whole entry): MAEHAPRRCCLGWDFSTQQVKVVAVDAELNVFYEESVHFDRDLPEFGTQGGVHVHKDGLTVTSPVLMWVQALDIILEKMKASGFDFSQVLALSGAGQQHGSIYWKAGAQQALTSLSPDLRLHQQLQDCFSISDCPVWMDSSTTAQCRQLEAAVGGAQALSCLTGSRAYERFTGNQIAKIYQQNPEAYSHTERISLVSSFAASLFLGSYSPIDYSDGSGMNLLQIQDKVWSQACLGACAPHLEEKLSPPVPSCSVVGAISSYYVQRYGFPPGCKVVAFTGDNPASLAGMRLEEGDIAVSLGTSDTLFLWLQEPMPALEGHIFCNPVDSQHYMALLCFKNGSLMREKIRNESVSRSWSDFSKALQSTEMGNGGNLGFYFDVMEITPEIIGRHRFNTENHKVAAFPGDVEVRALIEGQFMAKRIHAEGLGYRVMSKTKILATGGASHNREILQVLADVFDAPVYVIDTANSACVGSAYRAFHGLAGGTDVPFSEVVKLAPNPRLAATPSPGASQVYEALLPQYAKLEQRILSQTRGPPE
Chain of UniProt P53007 (P53007 whole entry, looked up): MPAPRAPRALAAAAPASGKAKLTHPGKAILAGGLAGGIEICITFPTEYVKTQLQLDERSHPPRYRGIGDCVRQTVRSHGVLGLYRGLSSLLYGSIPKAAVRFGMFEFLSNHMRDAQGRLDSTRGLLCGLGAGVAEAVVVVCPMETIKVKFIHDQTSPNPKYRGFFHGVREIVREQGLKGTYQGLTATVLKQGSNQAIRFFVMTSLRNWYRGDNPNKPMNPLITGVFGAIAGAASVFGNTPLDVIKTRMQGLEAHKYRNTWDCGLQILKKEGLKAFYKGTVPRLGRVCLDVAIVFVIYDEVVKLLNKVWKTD
Chain of UniProt Q9UNX4 (Q9UNX4 whole entry): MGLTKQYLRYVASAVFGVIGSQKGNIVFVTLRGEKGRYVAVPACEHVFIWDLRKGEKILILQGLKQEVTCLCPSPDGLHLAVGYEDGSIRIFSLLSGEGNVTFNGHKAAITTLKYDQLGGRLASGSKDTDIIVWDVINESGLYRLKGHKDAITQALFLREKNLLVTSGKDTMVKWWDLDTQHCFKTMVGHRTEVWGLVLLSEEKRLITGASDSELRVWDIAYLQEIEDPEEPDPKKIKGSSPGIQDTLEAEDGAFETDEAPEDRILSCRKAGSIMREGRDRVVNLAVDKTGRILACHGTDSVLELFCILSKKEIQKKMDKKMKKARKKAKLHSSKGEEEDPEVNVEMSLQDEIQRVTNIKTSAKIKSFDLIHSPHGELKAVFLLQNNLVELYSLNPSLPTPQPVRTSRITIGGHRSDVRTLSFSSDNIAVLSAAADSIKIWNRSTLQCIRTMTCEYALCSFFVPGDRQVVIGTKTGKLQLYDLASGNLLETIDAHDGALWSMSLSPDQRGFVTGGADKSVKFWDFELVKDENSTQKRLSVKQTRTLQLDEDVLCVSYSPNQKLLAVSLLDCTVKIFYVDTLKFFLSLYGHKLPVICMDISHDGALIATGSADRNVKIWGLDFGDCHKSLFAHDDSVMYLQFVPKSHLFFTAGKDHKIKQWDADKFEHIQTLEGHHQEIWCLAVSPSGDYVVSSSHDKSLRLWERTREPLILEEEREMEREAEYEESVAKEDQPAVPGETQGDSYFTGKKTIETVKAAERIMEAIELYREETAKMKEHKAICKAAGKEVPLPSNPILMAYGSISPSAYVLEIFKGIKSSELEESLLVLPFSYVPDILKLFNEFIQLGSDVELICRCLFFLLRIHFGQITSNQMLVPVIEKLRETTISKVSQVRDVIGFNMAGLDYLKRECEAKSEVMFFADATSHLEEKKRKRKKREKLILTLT
Chain of UniProt Q9Y2H0 (Q9Y2H0 whole entry): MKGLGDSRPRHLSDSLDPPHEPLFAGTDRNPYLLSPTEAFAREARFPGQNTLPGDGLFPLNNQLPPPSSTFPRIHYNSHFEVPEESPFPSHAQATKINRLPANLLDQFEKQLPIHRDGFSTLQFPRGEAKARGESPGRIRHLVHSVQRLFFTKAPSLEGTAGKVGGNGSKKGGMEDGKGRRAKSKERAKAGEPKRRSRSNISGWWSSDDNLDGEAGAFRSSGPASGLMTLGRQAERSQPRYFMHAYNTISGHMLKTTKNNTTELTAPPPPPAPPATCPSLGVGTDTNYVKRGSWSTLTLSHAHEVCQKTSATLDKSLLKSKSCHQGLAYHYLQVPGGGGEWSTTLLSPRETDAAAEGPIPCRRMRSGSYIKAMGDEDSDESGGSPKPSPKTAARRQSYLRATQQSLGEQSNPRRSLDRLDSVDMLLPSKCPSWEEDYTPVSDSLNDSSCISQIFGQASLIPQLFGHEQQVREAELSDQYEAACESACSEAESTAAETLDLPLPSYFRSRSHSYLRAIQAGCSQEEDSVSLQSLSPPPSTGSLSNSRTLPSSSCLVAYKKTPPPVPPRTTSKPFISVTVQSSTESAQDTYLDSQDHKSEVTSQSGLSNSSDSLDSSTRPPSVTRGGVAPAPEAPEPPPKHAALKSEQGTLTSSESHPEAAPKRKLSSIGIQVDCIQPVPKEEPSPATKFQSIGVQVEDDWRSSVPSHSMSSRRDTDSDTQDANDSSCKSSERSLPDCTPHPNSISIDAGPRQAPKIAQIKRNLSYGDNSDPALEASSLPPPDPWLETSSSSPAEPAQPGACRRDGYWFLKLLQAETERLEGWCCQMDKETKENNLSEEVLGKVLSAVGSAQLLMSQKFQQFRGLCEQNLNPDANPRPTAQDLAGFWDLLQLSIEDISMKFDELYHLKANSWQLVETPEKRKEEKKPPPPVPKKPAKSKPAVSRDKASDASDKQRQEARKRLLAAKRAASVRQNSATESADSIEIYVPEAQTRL
Chain of UniProt P0C7P0 (P0C7P0 whole entry): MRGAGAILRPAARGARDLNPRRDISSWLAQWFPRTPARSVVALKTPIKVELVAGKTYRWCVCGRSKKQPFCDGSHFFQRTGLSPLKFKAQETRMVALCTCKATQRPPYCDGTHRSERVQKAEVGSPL

| Target | thermal stability z-score (potassium arsenate) | thermal stability z-score (lipoamide; [1]) | thermal stability z-score (lipoamide; arsenate co-treatment: none) |
| --- | --- | --- | --- |
| EFHD2 (UniProt Q96C19) | -0.223 | 0.403 | 0.677 |
| PHB2 (UniProt Q99623) | 0.108 | 0.27 | 0.289 |
| CLP1 (UniProt Q92989) | -0.0689 | -0.189 | -0.158 |
| ALKBH6 (UniProt Q3KRA9) | 3.15 | 0.205 | 0.0821 |
| CIAO1 (UniProt O76071) | -1.32 | 0.164 | 0.0342 |
| WDR48 (UniProt Q8TAF3) | 1.13 | 0.197 | 0.3 |
| LDB1 (UniProt Q86U70) | -0.783 | 0.244 | 1.15 |
| CHD1 (UniProt O14646) | -0.504 | -0.0735 | 0.209 |
| TFCP2 (UniProt Q12800) | 0.147 | 0.151 | 0.69 |
| ACIN1 (UniProt Q9UKV3) | 0.115 | 1.66 | 0.763 |
| COLGALT1 (UniProt Q8NBJ5) | 0.633 | -4.85 | -4.14 |
| COPG1 (UniProt Q9Y678) | -0.32 | 0.243 | -0.177 |
| C12ORF29 (UniProt Q8N999) | -1.5 | 0.423 | -0.117 |
| PRPF38B (UniProt Q5VTL8) | -0.358 | -0.807 | -0.366 |
| XPNPEP3 (UniProt Q9NQH7) | -0.646 | -0.37 | 0.018 |
| FBL (UniProt P22087) | 0.723 | 0.277 | -0.112 |
| HDAC4 (UniProt P56524) | -0.19 | 0.426 | 0.45 |
| TLK1 (UniProt Q9UKI8) | 0.956 | 0.193 | -0.983 |
| DHRS7 (UniProt Q9Y394) | 0.437 | -0.365 | -0.498 |
| RIF1 (UniProt Q5UIP0) | -0.353 | 0.0548 | -0.0166 |
| PGS1 (UniProt Q32NB8) | -0.266 | 0.522 | 0.683 |
| SLC25A11 (UniProt Q02978) | 0.593 | 0.183 | 0.431 |
| SLC25A1 (UniProt P53007) | 0.43 | 1.03 | 0.6 |
| TXNL4A (UniProt P83876) | -0.461 | 0.343 | -0.0818 |

| Target | thermal stability z-score (potassium arsenate) | thermal stability z-score (lipoamide; [1]) | thermal stability z-score (lipoamide; arsenate co-treatment: none) |
| --- | --- | --- | --- |
| RIOK3 (UniProt O14730) | 0.507 | -0.0448 | -0.0085 |
| NUDC (UniProt Q9Y266) | 0.573 | 0.104 | 0.205 |
| CSNK1E (UniProt P49674) | -0.184 | 0.18 | -0.0385 |
| ASF1B (UniProt Q9NVP2) | -0.169 | -0.0916 | -0.0291 |
| DDX20 (UniProt Q9UHI6) | -0.763 | -0.457 | -0.527 |
| MST1R (UniProt Q04912) | -0.0232 | -0.0878 | 0.0193 |
| BCLAF1 (UniProt Q9NYF8) | -1.11 | 1.93 | 0.229 |
| PAK2 (UniProt Q13177) | -0.165 | -0.044 | 0.283 |
| CLNS1A (UniProt P54105) | -1.75 | 0.733 | 0.695 |
| LAMA5 (UniProt O15230) | 0.045 | -1.26 | -0.93 |
| GAA (UniProt P10253) | -0.00416 | -0.154 | 0.311 |
| CENPV (UniProt Q7Z7K6) | -0.0535 | 0.172 | 0.192 |
| SHKBP1 (UniProt Q8TBC3) | -0.372 | 0.0505 | 0.242 |
| CISD3 (UniProt P0C7P0) | 0.0591 | 1.09 | 1.49 |
| TES (UniProt Q9UGI8) | -4.89 | 0.0136 | -0.287 |
| SCRN3 (UniProt Q0VDG4) | -0.0506 | -0.445 | -0.169 |
| WDR70 (UniProt Q9NW82) | -0.891 | 0.397 | 0.0128 |
| PSMB4 (UniProt P28070) | 0.545 | 0.411 | 0.72 |
| GBAS (UniProt O75323) | -0.187 | 0.0991 | 0.0331 |
| BAG2 (UniProt O95816) | -0.106 | 0.187 | 0.292 |
| DEPDC7 (UniProt Q96QD5) | -0.221 | -0.328 | -0.237 |
| PSMD10 (UniProt O75832) | -0.327 | -0.817 | 0.0147 |
| YIF1B (UniProt Q5BJH7) | 0.898 | 0.452 | -0.197 |
| WDR3 (UniProt Q9UNX4) | -0.0987 | -0.031 | 0.0101 |

| Target | thermal stability z-score (potassium arsenate) | thermal stability z-score (lipoamide; [1]) | thermal stability z-score (lipoamide; arsenate co-treatment: none) |
| --- | --- | --- | --- |
| HAUS5 (UniProt O94927) | -0.0216 | 0.0805 | 0.111 |
| CXORF56 (UniProt Q9H5V9) | -3.91 | 0.162 | -0.0486 |
| HMBS (UniProt P08397) | 0.0804 | 0.513 | 0.573 |
| XYLB (UniProt O75191) | 0.149 | -0.0179 | -0.17 |
| RBSN (UniProt Q9H1K0) | -0.113 | 0.0643 | 0.16 |
| RAVER2 (UniProt Q9HCJ3) | -0.0887 | 0.204 | 0.253 |
| IREB2 (UniProt P48200) | -0.386 | -0.0142 | 0.0771 |
| NPR3 (UniProt P17342) | -0.486 | 0.2 | -0.339 |
| PIK3CA (UniProt P42336) | -0.45 | -0.275 | -0.149 |
| VAC14 (UniProt Q08AM6) | -0.61 | -0.483 | -0.0923 |
| THUMPD3 (UniProt Q9BV44) | 0.37 | 0.0954 | -0.489 |
| DLGAP4 (UniProt Q9Y2H0) | -2.62 | -0.0201 | -0.367 |
| METTL10 (UniProt Q5JPI9) | 0.206 | -0.0093 | 0.0402 |
| CENPE (UniProt Q02224) | 0.013 | 0.141 | 0.088 |
| RAP2B (UniProt P61225) | -0.0313 | 0.92 | 0.134 |
| GLTSCR2 (UniProt Q9NZM5) | -2.53 | 0.409 | -0.522 |
| MTRR (UniProt Q9UBK8) | 0.111 | 0.00117 | -0.531 |
| ANKHD1 (UniProt Q8IWZ3) | 0.37 | -0.133 | -0.523 |
| NAA16 (UniProt Q6N069) | -0.173 | 0.378 | 0.394 |
| TNKS1BP1 (UniProt Q9C0C2) | 3.12 | -0.0132 | 0.146 |
| NIPSNAP3A (UniProt Q9UFN0) | 0.337 | 0.144 | 0.432 |
| NDUFS7 (UniProt O75251) | 0.149 | 0.142 | 0.157 |
| AGTRAP (UniProt Q6RW13) | 1.66 | 0.719 | 0.743 |
